Laboratory results reported in patent US5945508A, “Substance P treatment for immunostimulation” (priority 1997, dated 1999).

How the values were obtained:
[1] = system: LP-BM5 murine leukemia retrovirus; experiment: Spleen changes and total cell numbers, LP-BM5 mouse AIDS model; format: in vivo, C57BL6 mice
Procedure: C57BL6 mice, average weight of 25-30 grams, were infected with the LP-BM5 murine leukemia retrovirus to simulate the human AIDS virus. […] The mice were divided into two groups; LP-BM5 virus only and LP-BM5 virus+substance P aerosol therapy at 1 μM concentration. The mice were killed at 4 and 8 weeks postinoculation.

[2] = system: murine melanoma B16 cancer cells; experiment: B16 melanoma lung tumor colonies after tail vein injection; format: in vivo, mice; conditions: for mean number of tumor colonies observed in both lungs: 1×10^4 B16 cells/mouse, 4 weeks post-injection; for reduction in tumors: versus controls
Source text: The mice were infected with syngeneic murine melanoma B16 cancer cells by tail vein injection. The dose was 1×10^4 B16 tumor cells/mouse. […] The second group of mice was given their substance P aerosol therapy starting one week after the injection of the B16 cells. The aerosol therapy lasted for one week. Both groups of mice and their corresponding controls (injection with B16 cells and no substance P therapy) were killed at 4 weeks post-injection with B16 cells. The data is presented as the mean number of tumor colonies observed in both lungs.

immune system organs = experiment: Organ weight and total cell recovery; format: in vivo, C57B16 mice; parameters: Spleen Cell Number / Thymus Cell Number / LN Cell Number / BM Cell Number: scale not given here; Spleen Weight / Thymus Weight: unit not given here
Procedure: (§1) At 24 hours after the last exposure, the animals were sacrificed and the effects of exposure on the immune system examined. Immune organs (spleen, thymus, blood, lymph nodes and bone marrow) were recovered and analyzed for effects on organ weight, total cell numbers, immune cell populations (by differentials), and lymphocyte subpopulations (by flow cytometry). Assays were also performed to examine the effects of exposure on immune function. […] Similar effects on immune cell subpopulations were also observed in lymph nodes. In the thymus it appeared that the immature CD4^+ CD8^+ cells were differentially lost due to exposure. […] However, these effects are prevented or ameliorated by treatment of the animals with Substance P.
For each of the immune system organs (spleen, lymph nodes and thymus) the wet weight is determined after removal using a microbalance. After processing of the organs into single cell suspensions the cell numbers and viabilities are determined using trypan blue staining. Histochemical differentials are performed at this time. Cell numbers and viabilities are again determined after centrifugation of the cell suspensions through density gradients to obtain mononuclear cells.

[3] = system: lymphocyte subpopulations; experiment: Flow cytometric analyses (FACS); format: in vivo, C57B16 mice
Procedure: as §1
One- and two-color FACS analyses are performed using a Becton-Dickinson FACStar Plus flow cytometer. Cells are stained with the indicated monoclonal antibodies according to standard procedures (Harris et al., id). Cells alone and cells reacted with conjugated isotype control, irrelevant mAbs are used as controls. Data is presented as the percentage of cells staining positive for each individual mAb.

[4] = JP-8 1000 mg/m^3 + SP, nSP (1 nM), CP or RP

## Substance P [SP]
[1]; 4 weeks after LP-BM5 infection, SP aerosol 1 μM
  total cell numbers (spleen) versus LP-BM5 group: not accompanied by an increase in total cell numbers
[1]; LP-BM5 mouse model, substance P aerosol therapy
  changes in the mouse spleens: significant changes in the mouse spleens
[2]; 1 μM SP aerosol 15 min/day 7 days starting immediately (next day)
  mean number of tumor colonies observed in both lungs: 39
[2]; SP aerosol for one week starting one week after injection
  mean number of tumor colonies observed in both lungs: 1
[2]; therapy starting immediately after B16 cells injection
  reduction in tumors: 62.9%
[2]; therapy starting one week after B16 cells injection
  reduction in tumors: 97.0%
Immune system organs; JP-8 250 mg/m^3 + SP
  BM Cell Number: 23
  LN Cell Number: 10.8
  Spleen Cell Number: 40
  Spleen Weight: 0.16
  Thymus Cell Number: 70
  Thymus Weight: 0.06
Immune system organs; [4]
  BM Cell Number: 21
  LN Cell Number: 5.0
  Spleen Cell Number: 72
  Spleen Weight: 0.14
  Thymus Cell Number: 78
  Thymus Weight: 0.11
Immune system organs; JP-8 2500 mg/m^3 + SP
  BM Cell Number: 19
  LN Cell Number: 5.0
  Spleen Cell Number: 87
  Spleen Weight: 0.10
  Thymus Cell Number: 96
  Thymus Weight: 0.08
Immune system organs; Substance P at both 1 uM and 1 nM doses
  reversal of effects of JP-8 exposure on the immune system: significantly reversed
Immune system organs; dose 0 (no JP-8) + SP or CP
  BM Cell Number: 9
  Spleen Cell Number: 30
  Spleen Weight: 0.10
  Thymus Cell Number: 18
  Thymus Weight: 0.04
[3]; JP-8 250 mg/m^3 + SP
  BM CD3 positive cells: 13%
  BM CD4 positive cells: 10%
  BM CD8 positive cells: 3%
  BM CD45 positive cells: 48%
  BM MAC1 positive cells: 10%
  LN CD3 positive cells: 85%
  LN CD4 positive cells: 48%
  LN CD8 positive cells: 12%
  LN CD45 positive cells: 13%
  LN MAC1 positive cells: 1%
  PBL CD3 positive cells: 59%
  PBL CD4 positive cells: 15%
  PBL CD8 positive cells: 6%
  PBL CD45 positive cells: 16%
  PBL MAC1 positive cells: 1%
  Spleen CD3 positive cells: 62%
  Spleen CD4 positive cells: 27%
  Spleen CD8 positive cells: 3%
  Spleen CD45 positive cells: 21%
  Spleen MAC1 positive cells: 1%
  Thymus CD3 positive cells: 24%
  Thymus DN cells: 5%
  Thymus DP cells: 68%
  Thymus SP4 cells: 22%
  Thymus SP8 cells: 5%
[3]; [4]
  BM CD3 positive cells: 14%
  BM CD4 positive cells: 9%
  BM CD8 positive cells: 2%
  BM CD45 positive cells: 31%
  BM MAC1 positive cells: 26%
  LN CD3 positive cells: 86%
  LN CD4 positive cells: 29%
  LN CD8 positive cells: 11%
  LN CD45 positive cells: 22%
  LN MAC1 positive cells: 0%
  PBL CD3 positive cells: 61%
  PBL CD4 positive cells: 23%
  PBL CD8 positive cells: 10%
  PBL CD45 positive cells: 22%
  PBL MAC1 positive cells: 3%
  Spleen CD3 positive cells: 34%
  Spleen CD4 positive cells: 18%
  Spleen CD8 positive cells: 10%
  Spleen CD45 positive cells: 20%
  Spleen MAC1 positive cells: 5%
  Thymus CD3 positive cells: 20%
  Thymus DN cells: 10%
  Thymus DP cells: 65%
  Thymus SP4 cells: 16%
  Thymus SP8 cells: 6%
[3]; JP-8 2500 mg/m^3 + SP
  BM CD3 positive cells: 6%
  BM CD4 positive cells: 3%
  BM CD8 positive cells: 6%
  BM CD45 positive cells: 24%
  BM MAC1 positive cells: 34%
  Spleen CD3 positive cells: 38%
  Spleen CD4 positive cells: 26%
  Spleen CD8 positive cells: 14%
  Spleen CD45 positive cells: 31%
  Spleen MAC1 positive cells: 3%
  Thymus CD3 positive cells: 16%
  Thymus DN cells: 19%
  Thymus DP cells: 64%
  Thymus SP4 cells: 15%
  Thymus SP8 cells: 5%
[3]; dose 0 (no JP-8) + SP or CP
  BM CD3 positive cells: 12%
  BM CD4 positive cells: 11%
  BM CD8 positive cells: 1%
  BM CD45 positive cells: 48%
  Spleen CD3 positive cells: 42%
  Spleen CD4 positive cells: 26%
  Spleen CD8 positive cells: 11%
  Spleen CD45 positive cells: 23%
  Spleen MAC1 positive cells: 1%
  Thymus CD3 positive cells: 10%
  Thymus DN cells: 7%
  Thymus DP cells: 84%
  Thymus SP4 cells: 6%
  Thymus SP8 cells: 2%
